Experimental data: paper PMC9232448 (European Journal of Drug Metabolism and Pharmacokinetics, 2022)
Like-named read-outs stand apart in the source and are kept apart here.

How the values were obtained:
[1] = cited from earlier work
[2] = Metabolic stability in hepatocyte induction incubations; assay type: in vitro ADME, human; conditions: last 24 hours of the incubation
[3] = system: CYP3A4 mRNA; experiment: CYP3A4 mRNA induction in plated cryopreserved human hepatocytes; assay type: cell-based; conditions: three donors; for true negative in vitro induction: statistical dose response and fold induction
[4] = cited from earlier work; remark: listed apart in the source
[5] = system: CYP3A; conditions: human, in vivo; cited from earlier work
[6] = system: human hepatocytes; experiment: Cytotoxicity / bell-shaped curves in hepatocyte induction incubations; assay type: cell-based; conditions: for concentrations removed from fitting (bell-shaped curve, suspected cytotoxicity): all donors; for concentration above which cytotoxicity was seen: donor two
[7] = Estimated free fraction in culture medium; conditions: bovine, hepatocyte culture medium with 1.25 mg/ml BSA
[8] = reported value before fu was set to 0.01

O=C(O)c1ccc2nc(-c3cc(Cl)cc(Cl)c3)oc2c1 [Tafamidis, tafamidis]
fu (reported plasma protein binding) ([1]; plasma): 0.005
% loss when comparing the Cavg to the T0 concentration (limited depletion) [2]: < 25%
concentration-dependent increase in CYP3A4 mRNA [3]: concentration-dependent increases in all three donors

CO[C@H]1/C=C/O[C@@]2(C)Oc3c(C)c(O)c4c(O)c(c5c(nc6cc(C)ccn65)c4c3C2=O)NC(=O)/C(C)=C\C=C\[C@H](C)[C@H](O)[C@@H](C)[C@@H](O)[C@@H](C)[C@H](OC(C)=O)[C@@H]1C [Rifaximin, rifaximin]
% loss when comparing the Cavg to the T0 concentration (limited depletion) [2]: < 25%
concentration-dependent increase in CYP3A4 mRNA [3]: concentration-dependent increases in all three donors

COc1ccccc1Oc1c(NS(=O)(=O)c2ccc(C(C)(C)C)cc2)nc(-c2ncccn2)nc1OCCO [Bosentan]
observed fu,in vitro [4]: 0.38

O=C1NC(=O)C(c2ccccc2)(c2ccccc2)N1 [Phenytoin]
AUCR range [5]: 0.105–0.607

CN(CCOc1ccc(CC2SC(=O)NC2=O)cc1)c1ccccn1 (stereo not drawn) [rosiglitazone]
observed fu,in vitro [4]: 0.15

O=C(O)c1ccc(CN2C[C@@H]3C[C@H]2CN3Cc2ccc(Oc3ccc(-c4ncco4)cc3)cc2)cc1 [Acebilustat, acebilustat]
% loss when comparing the Cavg to the T0 concentration (limited depletion) [2]: < 25%
true negative in vitro induction [3]: true in vitro negatives in all three donors

Cc1nnc(C(=O)NC(C)(C)c2nc(C(=O)NCc3ccc(F)cc3)c(O)c(=O)n2C)o1 [Raltegravir, raltegravir]
true negative in vitro induction [3]: true in vitro negatives in all three donors

O=C(O)CSc1nnc(Br)n1-c1ccc(C2CC2)c2ccccc12 [Lesinurad, lesinurad]
concentrations removed from fitting (bell-shaped curve, suspected cytotoxicity) [6]: > 100 µM
% loss when comparing the Cavg to the T0 concentration (limited depletion) [2]: < 25%
concentration-dependent increase in CYP3A4 mRNA [3]: concentration-dependent increases in all three donors

CCC(=O)NC[C@@H]1C[C@H]1c1cccc2c1CCO2 [Tasimelteon, tasimelteon]
concentration-dependent increase in CYP3A4 mRNA [3]: concentration-dependent increases in all three donors

Cn1c(Cn2ccc(C(F)(F)F)c(Oc3cc(Cl)cc(C#N)c3)c2=O)n[nH]c1=O [Doravirine, doravirine]
% loss when comparing the Cavg to the T0 concentration (limited depletion) [2]: < 25%
concentration-dependent increase in CYP3A4 mRNA [3]: concentration-dependent increases in all three donors

CCC1(c2ccccc2)C(=O)NC(=O)NC1=O [Phenobarbital]
AUCR [5]: 0.394

CC(C)N(CCCCOCC(=O)NS(C)(=O)=O)c1cnc(-c2ccccc2)c(-c2ccccc2)n1 [Selexipag, selexipag]
fu (reported plasma protein binding) [1, 8]: < 0.01
concentration-dependent increase in CYP3A4 mRNA [3]: concentration-dependent increases in all three donors

CO[C@H]1/C=C/O[C@@]2(C)Oc3c(C)c(O)c4c(O)c(c(/C=N/N5CCN(C)CC5)c(O)c4c3C2=O)NC(=O)/C(C)=C\C=C\[C@H](C)[C@H](O)[C@@H](C)[C@@H](O)[C@@H](C)[C@H](OC(C)=O)[C@@H]1C [Rifampicin]
% loss when comparing the Cavg to the T0 concentration (limited depletion) [2]: < 25%

O=C1Nc2ccc(Cl)cc2[C@@](C#CC2CC2)(C(F)(F)F)O1 [Efavirenz]
fu (reported plasma protein binding) ([1]; plasma): 0.0025
AUCR range [5]: 0.240–0.929

NC(=O)N1c2ccccc2C=Cc2ccccc21 [Carbamazepine]
AUCR range [5]: 0.124–0.603

CC(C)OC(=O)[C@H](C)N[P@](=O)(OC[C@H]1O[C@@H](n2ccc(=O)[nH]c2=O)[C@](C)(F)[C@@H]1O)Oc1ccccc1 [Sofosbuvir, sofosbuvir]
concentrations removed from fitting (bell-shaped curve, suspected cytotoxicity) [6]: 300 µM
true negative in vitro induction [3]: negative in one donor
concentration-dependent increase in CYP3A4 mRNA [3]: concentration-dependent increases in two of three donors

Cc1cc(/C=C/C#N)cc(C)c1Nc1ccnc(Nc2ccc(C#N)cc2)n1 [Rilpivirine, rilpivirine]
concentration above which cytotoxicity was seen [6]: > 100 µM
concentration above which signs of cytotoxicity were seen ([6]; donors one): > 30 µM
concentration-dependent increase in CYP3A4 mRNA [3]: concentration-dependent increases in all three donors

Nc1nc(-n2cc(C(=O)O)c(=O)c3cc(F)c(N4CC(O)C4)c(Cl)c32)c(F)cc1F [Delafloxacin, delafloxacin]
concentration at which apparent cytotoxicity was seen ([6]; donor three): 300 µM
concentration above which cytotoxicity was seen [6]: > 100 µM
% loss when comparing the Cavg to the T0 concentration (limited depletion) [2]: < 25%
true negative in vitro induction [3]: negative in two donors
concentration-dependent increase in CYP3A4 mRNA [3]: concentration-dependent increases in one of three donors

CCc1ccc(CCOc2ccc(CC3SC(=O)NC3=O)cc2)nc1 (stereo not drawn) [pioglitazone]
observed fu,in vitro [4]: 0.22

Cn1cnc2c(F)c(Nc3ccc(Br)cc3F)c(C(=O)NOCCO)cc21 [Binimetinib]
concentration-dependent increase in CYP3A4 mRNA [3]: concentration-dependent increases in all three donors

C[C@H](Cn1cnc2c(N)ncnc21)OCP(=O)(O)O [Tenofovir, tenofovir]
% loss when comparing the Cavg to the T0 concentration (limited depletion) [2]: < 25%
true negative in vitro induction [3]: true in vitro negatives in all three donors

Cc1cc(CCCOc2c(C)cc(-c3noc(C(F)(F)F)n3)cc2C)on1 [Pleconaril]
fu (reported plasma protein binding) [1, 8]: 0.01
correction factor applied to nominal concentrations (nonspecific binding) [4]: 0.2
fraction unbound [7]: 0.256
